Structures can show the parent of a compound that is named as a salt.
Key:
hPPARalpha = molecular target: T1, hPPARalpha (Homo sapiens, UniProt Q07869); experiment: Gal4-hPPARalpha transactivation assay in COS-7 cells (luciferase); type: cell-based; details: for Emax: COS-7, maximal relative activation vs reference, read-out: Gal4-hPPARα(LBD) TOP (% ref); for EC50: Gal4-hPPARα(LBD) transactivation
T1 construct: Gal4-hPPARα(LBD); Gal4 (fusion partner); expressed in transfected cells; host or cells: COS-7 (monkey kidney)
T1 sequence (Q07869 239-466 limits assumed): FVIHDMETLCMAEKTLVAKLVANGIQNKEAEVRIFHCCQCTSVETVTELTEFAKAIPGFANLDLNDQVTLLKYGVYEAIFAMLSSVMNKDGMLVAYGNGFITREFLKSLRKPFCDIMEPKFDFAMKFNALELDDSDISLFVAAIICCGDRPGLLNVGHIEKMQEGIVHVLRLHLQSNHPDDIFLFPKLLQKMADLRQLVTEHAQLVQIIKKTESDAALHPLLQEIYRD
Procedure: (§1) Monkey kidney COS-7 cells were maintained in standard culture conditions (Dulbecco's modified Eagle's minimal medium: DMEM) supplemented with 10% fetal calf serum, 1% sodium pyruvate, 1% essential amino acids and 1% antibiotics at 37° C. in a humidified atmosphere of 5% C02 and 95% air. The medium was changed every 2 days. All tested compounds were dissolved in DMSO. Cells were transfected using 2 μl JetPEI™ (Polyplus transfection)/μg of DNA. Briefly, 40 μg of DNA was transfected in a 225 cm^2 culture flask of adherent COS-7 cells (respecting the 1/50 ratio between the Gal4(RE)_TkpGL3 plasmid and the plasmid coding the nuclear receptor of interest (pGal4-hPPARalpha, pGal4-hPPARgamma, pGal4-hPPARdelta, pGal4-mPPARalpha, pGal4-mPPARgamma and pGal4-mPPARdelta) or of the pGal4phi plasmid (negative control). Cells were enzymatically detached and seeded in 384 well plates at the density of 20,000 cells/well and then incubated for 4 hours at 37° C. The activation was automatically performed, by using the Genesis Freedom 200™ (Tecan), in fresh medium supplemented with 2% of synthetic serum, free of lipids (Ultroser™, Biosepra) supplemented with the tested compounds (compound of interest or reference molecules) or vehicle (DMSO 0.1%). The luciferase activity was measured with the Steady-Glo Luciferase Assay System (Promega, Madison, Wis.). All transactivation experiments were performed at least 2 times. Activation curves were realized using SigmaPlot® (version 7.0 from SPSS Inc.) software and took into account all the experimental points. SimgaPlot® was also used to fit the standard curves and then determine the specific EC50 values, maximum effect versus reference molecules and Hill slope. The Emax effect of each new ligand is represented as the ratio of the maximal induction (plateau) obtained with the new ligand and the induction obtained with the corresponding reference compound. The reference compounds for PPARalpha, PPARgamma and PPARdelta were fenofibrate (100 μM), rosiglitazone (10 μM) and GW501516 (1 μM).

hPPARdelta = molecular target: T2, hPPARdelta (Homo sapiens, UniProt Q03181); experiment: Gal4-hPPARdelta transactivation assay in COS-7 cells (luciferase); type: cell-based; details: for Emax: COS-7, maximal relative activation vs reference, read-out: Gal4-hPPARδ(LBD) TOP (% ref); for EC50: Gal4-hPPARδ(LBD) transactivation; for Gal4-hPPARδ(LBD) TOP (% ref): maximal relative activation vs reference
T2 construct: Gal4-hPPARδ(LBD); Gal4 (fusion partner); expressed in transfected cells; host or cells: COS-7 (monkey kidney)
T2 sequence (Q03181 211-439 limits assumed): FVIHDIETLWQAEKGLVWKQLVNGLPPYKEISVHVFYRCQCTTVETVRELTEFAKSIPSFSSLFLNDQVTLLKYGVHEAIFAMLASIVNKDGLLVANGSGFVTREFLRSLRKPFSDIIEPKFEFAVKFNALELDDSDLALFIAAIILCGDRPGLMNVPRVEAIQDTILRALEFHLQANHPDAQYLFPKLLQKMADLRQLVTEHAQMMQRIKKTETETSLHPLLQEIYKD
Procedure: as §1

hPPARgamma = molecular target: T3, hPPARgamma (Homo sapiens, UniProt P37231); experiment: Gal4-hPPARgamma transactivation assay in COS-7 cells (luciferase); type: cell-based; details: for Emax: COS-7, maximal relative activation vs reference, read-out: Gal4-hPPARγ(LBD) TOP (% ref); for EC50: Gal4-hPPARγ(LBD) transactivation; for Gal4-hPPARγ(LBD) TOP (% ref): maximal relative activation vs reference
T3 construct: Gal4-hPPARγ(LBD); Gal4 (fusion partner); expressed in transfected cells; host or cells: COS-7 (monkey kidney)
T3 sequence (P37231 238-503 limits assumed): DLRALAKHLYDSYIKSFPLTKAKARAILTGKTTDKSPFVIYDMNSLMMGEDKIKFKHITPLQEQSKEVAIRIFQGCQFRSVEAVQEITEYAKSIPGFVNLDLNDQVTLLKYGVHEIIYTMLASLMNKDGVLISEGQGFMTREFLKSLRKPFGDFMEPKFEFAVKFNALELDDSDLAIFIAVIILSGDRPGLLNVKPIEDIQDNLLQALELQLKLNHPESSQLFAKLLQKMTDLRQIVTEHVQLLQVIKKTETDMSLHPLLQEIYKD
Procedure: as §1

Emax (hPPARalpha) [%]	EC50 (hPPARalpha) [nM]	EC50 (hPPARdelta) [nM]	Emax (hPPARgamma) [%]	EC50 (hPPARgamma) [nM]	further results	SMILES
44	239	40	68	44	melting point: 133 °C; Emax (hPPARdelta): 84%	COC(c1ccc(Br)cc1)C1CC1c1cc(C)c(OC(C)(C)C(=O)O)c(C)c1 (racemic) [Cpd 1-1, 2-(4-(2-(methoxy(4-bromophenyl)methyl)cyclopropyl)-2,6-dimethylphenoxy)-2-methylpropanoic acid]
					melting point: 155 to 156 °C	COC(c1ccc(OC(F)(F)F)cc1)C1CC1c1cc(C)c(OC(C)(C)C(=O)O)c(C)c1 (single isomer, unassigned) (as salt: TFA) [Cpd 14-1-1, 2-(4-(2-(methoxy(4-(trifluoromethoxy)phenyl)methyl)cyclopropyl)-2,6-dimethylphenoxy)-2-methylpropanoic acid]
	623	214		9		COC(c1ccccc1OC(F)(F)F)C1CC1c1cc(C)c(OC(C)(C)C(=O)O)c(C)c1 (single isomer, unassigned) [Cpd 13-2, 2-(4-(2-(methoxy(2-(trifluoromethyloxy)phenyl)methyl)cyclopropyl)-2,6-dimethylphenoxy)-2-methylpropanoic acid]
60	32	7		25		COC(c1ccc(OC(F)(F)F)cc1)C1CC1c1cc(C)c(OC(C)(C)C(=O)O)c(C)c1 (single isomer, unassigned) [Cpd 14-1, 2-(4-(2-(methoxy(4-(trifluoromethoxy)phenyl)methyl)cyclopropyl)-2,6-dimethylphenoxy)-2-methylpropanoic acid]
	211	27		81	Gal4-hPPARα(LBD) TOP (% ref) (hPPARalpha; maximal relative activation vs reference, listed as cpd 14-1-1): 43 % ref; Gal4-hPPARδ(LBD) TOP (% ref) (hPPARdelta; listed as cpd 14-1-1): 67 % ref; Gal4-hPPARγ(LBD) TOP (% ref) (hPPARgamma; listed as cpd 14-1-1): 78 % ref	COC(c1ccc(OC(F)(F)F)cc1)C1CC1c1cc(C)c(OC(C)(C)C(=O)O)c(C)c1 (single isomer, unassigned) [Cpd 14-1-1, 2-(4-(2-(methoxy(4-(trifluoromethoxy)phenyl)methyl)cyclopropyl)-2,6-dimethylphenoxy)-2-methylpropanoic acid]
	41	30		17	melting point: 190 to 194 °C	COC(c1ccc(OC(F)(F)F)cc1)C1CC1c1cc(C)c(OC(C)(C)C(=O)O)c(C)c1 (single isomer, unassigned) [Cpd 14-2, 2-(4-(2-(methoxy(4-(trifluoromethoxy)phenyl)methyl)cyclopropyl)-2,6-dimethylphenoxy)-2-methylpropanoic acid]
24	449	105	66	66	Emax (hPPARdelta): 92%	COC(c1ccc(OC(F)(F)F)cc1)C1CC1c1ccc(OC(C)(C)C(=O)O)c(C(C)C)c1 (single isomer, unassigned) [Cpd 15-1, 2-(2-isopropyl-4-(2-(methoxy(4-(trifluoromethoxy)phenyl)methyl)cyclopropyl)phenoxy)-2-methylpropanoic acid]
	145	123		46		COC(c1ccc(OC(F)(F)F)cc1)C1CC1c1ccc(OC(C)(C)C(=O)O)c(C(C)C)c1 (single isomer, unassigned) [Cpd 15-2, 2-(2-isopropyl-4-(2-(methoxy(4-(trifluoromethoxy)phenyl)methyl)cyclopropyl)phenoxy)-2-methylpropanoic acid]
40	108	44	80	14	Emax (hPPARdelta): 60%	COC(c1ccc(C(F)(F)F)cc1C(F)(F)F)C1CC1c1cc(C)c(OC(C)(C)C(=O)O)c(C)c1 (single isomer, unassigned) [Cpd 16-1, 2-(4-(2-((2,4-bis(trifluoromethyl)phenyl)(methoxy)methyl)cyclopropyl)-2,6-dimethylphenoxy)-2-methylpropanoic acid]
	50	12		2		COC(c1ccc(C(F)(F)F)cc1C(F)(F)F)C1CC1c1cc(C)c(OC(C)(C)C(=O)O)c(C)c1 (single isomer, unassigned) [Cpd 16-2, 2-(4-(2-((2,4-bis(trifluoromethyl)phenyl)(methoxy)methyl)cyclopropyl)-2,6-dimethylphenoxy)-2-methylpropanoic acid]
44			90	16	EC50 (hPPARalpha; listed as cpd 14-2-1): 50 nM; EC50 (hPPARdelta; listed as cpd 14-2-1): 19 nM; Gal4-hPPARδ(LBD) TOP (% ref) (hPPARdelta; listed as cpd 14-2-1): 78 % ref	COC(c1ccc(OC(F)(F)F)cc1)C1CC1c1cc(C)c(OC(C)(C)C(=O)O)c(C)c1 (centres unmarked) [Cpd 14-2-1, 2-(4-(2-(methoxy(4-(trifluoromethoxy)phenyl)methyl)cyclopropyl)-2,6-dimethylphenoxy)-2-methylpropanoic acid]
					EC50 (hPPARalpha; listed as cpd 14-2-2): 17 nM; EC50 (hPPARdelta; listed as cpd 14-2-2): 59 nM; Gal4-hPPARδ(LBD) TOP (% ref) (hPPARdelta; listed as cpd 14-2-2): 57 % ref; Gal4-hPPARγ(LBD) TOP (% ref) (hPPARgamma; listed as cpd 14-2-2): 72 % ref	COC(c1ccc(OC(F)(F)F)cc1)C1CC1c1cc(C)c(OC(C)(C)C(=O)O)c(C)c1 (centres unmarked) [Cpd 14-2-2, 2-(4-(2-(methoxy(4-(trifluoromethoxy)phenyl)methyl)cyclopropyl)-2,6-dimethylphenoxy)-2-methylpropanoic acid]

From US9115073B2, “1,3-diphenylpropane derivatives, preparations and uses thereof” (GENFIT, priority 2011, dated 2015)
